Data reported in ChEMBL document CHEMBL1201862, “PubChem BioAssay data set” (2004).
Activity calls are given as the source filed them.

Tests used:
[1] = molecular target: Luciferin 4-monooxygenase (Photinus pyralis, UniProt P08659); assay: Counter Screen for Luciferase-based Assay Positives. [Related pubchem assays: 620, 618, 411 ]
[2] = molecular target: T1, Heat shock factor protein 1 (Mus musculus, UniProt P38532); assay: inhibition of MG132-induced HSE-luciferase signal, confirmation, cell-based, NIH3T3, luminescence, dose retest (AID 2382); type: functional;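 also: NIH3T3 fibroblasts with HSF1-driven luciferase reporter stressed by proteasome inhibitor MG132; luminescence from HSF1-driven luciferase expression after 8 hours of MG132 stress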
T1 sequence (P38532 whole entry): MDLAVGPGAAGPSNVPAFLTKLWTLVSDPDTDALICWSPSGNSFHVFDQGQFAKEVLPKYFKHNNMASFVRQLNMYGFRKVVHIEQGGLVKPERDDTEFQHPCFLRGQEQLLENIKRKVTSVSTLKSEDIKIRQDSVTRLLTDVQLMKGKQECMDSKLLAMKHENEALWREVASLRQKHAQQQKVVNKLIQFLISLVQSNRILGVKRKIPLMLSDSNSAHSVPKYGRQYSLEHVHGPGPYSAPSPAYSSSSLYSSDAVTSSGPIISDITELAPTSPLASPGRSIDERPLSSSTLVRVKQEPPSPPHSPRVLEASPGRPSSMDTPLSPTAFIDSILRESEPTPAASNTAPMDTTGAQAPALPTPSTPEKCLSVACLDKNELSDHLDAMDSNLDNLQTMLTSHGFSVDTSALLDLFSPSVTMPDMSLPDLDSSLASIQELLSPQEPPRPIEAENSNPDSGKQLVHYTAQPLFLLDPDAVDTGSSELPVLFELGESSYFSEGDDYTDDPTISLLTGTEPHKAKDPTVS

[3] = Luminescence-based counterscreen assay for KLF5 inhibitors: dose response cell-based high throughput screening assay to identify cytotoxic compounds using the IEC-6 intestinal epithelial cell line. [Related pubchem assays: 1700 (Primary screen.), 1834 (Confirmation screen.), 1858 (Summary AID.), 1905 (Counterscreen.)]; type: functional
[4] = system: HT-1080; assay: cytotoxicity in HT1080 fibrosarcoma cells, cell-based, fluorescence readout (AID 620); type: functional; settings: Homo sapiens
[5] = cells; type: functional, cell-based
[6] = cells; type: functional, cell-based; remark: listed apart in the source
[7] = molecular target: Acyl-homoserine lactone acylase PvdQ (Pseudomonas aeruginosa (strain LESB58), UniProt Q9I194); assay: P. aeruginosa PvdQ acylase inhibitors, dose response, biochemical, fluorescence, plate reader and imaging, cherry-picks (AID 493231)
[8] = molecular target: Glucose-6-phosphate 1-dehydrogenase (Homo sapiens, UniProt P11413); assay: human G6PD enzyme inhibitors, dose response, selectivity assay for P. falciparum G6PD inhibitor project, biochemical, fluorescence (AID 504792); type: functional
[9] = molecular target: C-C chemokine receptor type 6 (Homo sapiens, UniProt P51684); assay: CCR6 receptor antagonists, dose response, cell-based, luminescent beta-arrestin readout (AID 504728); type: functional
[10] = molecular target: Beta-galactosidase (Escherichia coli, UniProt Q8VNN2); assay: beta-galactosidase enzyme inhibitors and activators, dose response, artefact control for CCR6 antagonist project, biochemical, E. coli enzyme, set 3 (AID 504712); type: functional
[11] = molecular target: Nonstructural protein 1 (Influenza A virus, UniProt Q194T2); type: functional, Influenza A virus (A/California/07/2009(H1N1))
[12] = system: Vero; assay: Vero cell cytotoxicity, cytotoxicity control for flavivirus capping enzyme inhibitors (AID 588742); type: functional; settings: Chlorocebus sabaeus
[13] = molecular target: Genome polyprotein (dengue virus type 2, UniProt P29990); assay: Dengue-2 NS5 methyltransferase inhibitors, primary screen, biochemical, confirmation dose response (AID 588689); type: functional
[14] = Shn3 3'UTR reporter inhibitors, dose response, cell-based, Clone20 osteoblasts, firefly luciferase, cherry-picked (AID 624132); type: functional;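 also: firefly luciferase luminescence from reporter carrying the Shn3 3'UTR in osteoblasts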
[15] = HepG2 cell cytotoxicity, dose response, cytotoxicity control for Shn3 inhibitor project, CellTiter-Glo, cherry-picked (AID 624134); type: functional, cell-based
[16] = control 3'UTR Renilla luciferase suppression, dose response, counter-screen for Shn3 inhibitor project, cell-based, Clone20-Shn3RL, cherry-picked (AID 624133); type: functional
[17] = human group III sPLA2 inhibitors, dose response, biochemical, QFRET, IC50 (AID 743457);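 also: green fluorescence rise as the enzyme cleaves BODIPY PC-A2 in liposomes; potency for inhibition of the enzyme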
[18] = THP-1 cell cytotoxicity, dose response, cytotoxicity control for Vif-APOBEC3G degradation inhibitor project, THP-1 cells (AID 1117359); type: functional; settings: Human immunodeficiency virus 1, THP-1
[19] = molecular target: Glutathione-S-transferase (Schistosoma japonicum, UniProt Q26513); assay: biotin-GST/anti-GST TR-FRET signal inhibitors, dose response, artefact control for Vif-APOBEC3G degradation inhibitor project, biochemical (AID 1117362); type: functional
[20] = system: HeLa; assay: HeLa cell cytotoxicity, dose response, cytotoxicity control, 24 h, cherry-picked samples (AID 504726); type: functional, cell-based; settings: Homo sapiens;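 also: potency for cytotoxicity as loss of luminescence signal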
[21] = molecular target: Wee1-like protein kinase (Homo sapiens, UniProt P30291); assay: G2/M cell cycle arrest in HeLa, late-stage follow-up, mechanism study for Wee1 degradation inhibitor project, FACS, panel member Wee1 Degradation (AID 2088)
[22] = molecular target: G2/mitotic-specific cyclin-B1 (Homo sapiens, UniProt P14635); assay: G2/M cell cycle arrest in HeLa, late-stage follow-up, mechanism study for Wee1 degradation inhibitor project, FACS, panel member Cyclin B Degradation (AID 2088)
[23] = molecular target: T2, Short transient receptor potential channel 4 (Mus musculus, UniProt Q9QUQ5); assay: mouse TRPC4 channel inhibitors, dose response, cell-based, HEK293 TRPC4/mu-opioid, Fluo-4 calcium (AID 434942); type: functional;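 also: potency of inhibitors blocking the TRPC4 calcium response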
T2 sequence (Q9QUQ5 whole entry): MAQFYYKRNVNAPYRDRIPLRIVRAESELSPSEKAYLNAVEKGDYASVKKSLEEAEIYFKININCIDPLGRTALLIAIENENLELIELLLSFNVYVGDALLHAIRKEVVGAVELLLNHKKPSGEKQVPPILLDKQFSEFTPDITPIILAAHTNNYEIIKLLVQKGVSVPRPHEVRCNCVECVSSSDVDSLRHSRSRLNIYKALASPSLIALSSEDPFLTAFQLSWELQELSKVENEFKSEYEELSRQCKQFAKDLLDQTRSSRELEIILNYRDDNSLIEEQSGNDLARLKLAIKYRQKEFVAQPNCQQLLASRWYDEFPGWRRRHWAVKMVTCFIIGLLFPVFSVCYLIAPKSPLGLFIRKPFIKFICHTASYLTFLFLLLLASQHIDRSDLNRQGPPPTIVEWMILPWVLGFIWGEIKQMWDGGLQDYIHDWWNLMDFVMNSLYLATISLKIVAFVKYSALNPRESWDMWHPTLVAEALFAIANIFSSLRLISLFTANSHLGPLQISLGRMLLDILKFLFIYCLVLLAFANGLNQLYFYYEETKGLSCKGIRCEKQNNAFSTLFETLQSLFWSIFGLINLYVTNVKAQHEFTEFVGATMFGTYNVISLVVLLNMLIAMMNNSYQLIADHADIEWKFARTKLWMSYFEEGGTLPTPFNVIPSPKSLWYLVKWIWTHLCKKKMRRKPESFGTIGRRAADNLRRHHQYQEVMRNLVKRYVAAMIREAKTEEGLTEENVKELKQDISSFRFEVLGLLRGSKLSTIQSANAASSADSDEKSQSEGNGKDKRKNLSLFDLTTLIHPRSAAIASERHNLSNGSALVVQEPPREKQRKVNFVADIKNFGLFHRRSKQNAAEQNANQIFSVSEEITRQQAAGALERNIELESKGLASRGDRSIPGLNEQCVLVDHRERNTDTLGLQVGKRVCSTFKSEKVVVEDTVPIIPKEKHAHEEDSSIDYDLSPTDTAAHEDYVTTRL

[24] = microbe, parasite or virus in culture; type: functional; settings: Mycobacterium tuberculosis
[25] = molecular target: X-box-binding protein 1 (Homo sapiens, UniProt P17861); type: functional, Cricetulus griseus;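 also: confirmatory dose-response counter-screen serving a CHOP assay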
Chain of X-box-binding protein 1 (P17861 whole entry): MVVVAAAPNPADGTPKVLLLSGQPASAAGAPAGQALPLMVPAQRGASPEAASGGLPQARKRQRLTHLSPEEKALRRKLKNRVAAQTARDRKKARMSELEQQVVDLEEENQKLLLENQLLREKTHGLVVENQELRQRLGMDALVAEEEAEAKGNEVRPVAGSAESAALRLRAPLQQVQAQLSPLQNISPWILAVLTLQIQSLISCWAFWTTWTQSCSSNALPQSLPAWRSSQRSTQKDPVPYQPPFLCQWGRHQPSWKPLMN

Chain of Nonstructural protein 1 (Q194T2 whole entry): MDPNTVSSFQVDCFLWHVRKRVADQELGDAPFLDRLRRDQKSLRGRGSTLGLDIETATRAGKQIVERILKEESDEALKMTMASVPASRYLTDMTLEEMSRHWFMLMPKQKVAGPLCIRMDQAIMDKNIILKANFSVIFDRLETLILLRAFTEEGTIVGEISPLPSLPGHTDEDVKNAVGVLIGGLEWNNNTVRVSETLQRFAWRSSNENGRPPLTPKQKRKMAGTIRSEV
Chain of Acyl-homoserine lactone acylase PvdQ (Q9I194 24-193 limits assumed): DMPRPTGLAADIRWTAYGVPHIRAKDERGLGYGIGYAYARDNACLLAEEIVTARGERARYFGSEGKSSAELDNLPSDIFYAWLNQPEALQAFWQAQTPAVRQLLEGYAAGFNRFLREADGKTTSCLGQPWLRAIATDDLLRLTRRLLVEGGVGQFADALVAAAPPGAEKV
Chain of Acyl-homoserine lactone acylase PvdQ (Q9I194 217-762 limits assumed): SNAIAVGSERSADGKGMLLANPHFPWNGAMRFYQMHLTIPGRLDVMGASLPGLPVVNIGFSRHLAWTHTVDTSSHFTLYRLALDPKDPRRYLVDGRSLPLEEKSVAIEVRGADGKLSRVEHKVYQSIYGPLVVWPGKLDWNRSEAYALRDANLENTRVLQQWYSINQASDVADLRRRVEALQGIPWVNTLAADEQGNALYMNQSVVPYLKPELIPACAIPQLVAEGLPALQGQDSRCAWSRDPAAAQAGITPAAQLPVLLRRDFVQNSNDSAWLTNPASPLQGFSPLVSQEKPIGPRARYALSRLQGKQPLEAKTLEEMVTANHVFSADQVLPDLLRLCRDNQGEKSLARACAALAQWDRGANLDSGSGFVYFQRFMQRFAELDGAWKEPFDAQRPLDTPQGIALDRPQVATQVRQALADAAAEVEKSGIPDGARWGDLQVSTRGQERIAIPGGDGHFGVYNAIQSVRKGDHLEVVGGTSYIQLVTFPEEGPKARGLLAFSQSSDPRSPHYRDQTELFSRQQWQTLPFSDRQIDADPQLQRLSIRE
Chain of Luciferin 4-monooxygenase (P08659 whole entry): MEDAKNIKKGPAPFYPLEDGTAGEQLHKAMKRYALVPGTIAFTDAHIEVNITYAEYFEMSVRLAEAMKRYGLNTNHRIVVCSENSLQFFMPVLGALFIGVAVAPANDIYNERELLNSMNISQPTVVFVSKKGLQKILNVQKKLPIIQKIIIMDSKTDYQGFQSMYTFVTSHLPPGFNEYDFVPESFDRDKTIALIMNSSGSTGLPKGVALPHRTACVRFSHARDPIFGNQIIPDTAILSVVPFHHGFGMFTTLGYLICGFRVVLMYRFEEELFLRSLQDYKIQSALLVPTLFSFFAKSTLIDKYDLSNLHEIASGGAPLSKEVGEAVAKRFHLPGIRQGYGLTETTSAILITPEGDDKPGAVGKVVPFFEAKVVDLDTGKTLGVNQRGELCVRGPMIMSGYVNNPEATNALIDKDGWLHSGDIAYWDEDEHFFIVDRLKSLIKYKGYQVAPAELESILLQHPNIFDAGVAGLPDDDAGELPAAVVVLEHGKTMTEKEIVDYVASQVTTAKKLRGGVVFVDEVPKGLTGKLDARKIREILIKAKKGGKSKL
Chain of G2/mitotic-specific cyclin-B1 (P14635 whole entry): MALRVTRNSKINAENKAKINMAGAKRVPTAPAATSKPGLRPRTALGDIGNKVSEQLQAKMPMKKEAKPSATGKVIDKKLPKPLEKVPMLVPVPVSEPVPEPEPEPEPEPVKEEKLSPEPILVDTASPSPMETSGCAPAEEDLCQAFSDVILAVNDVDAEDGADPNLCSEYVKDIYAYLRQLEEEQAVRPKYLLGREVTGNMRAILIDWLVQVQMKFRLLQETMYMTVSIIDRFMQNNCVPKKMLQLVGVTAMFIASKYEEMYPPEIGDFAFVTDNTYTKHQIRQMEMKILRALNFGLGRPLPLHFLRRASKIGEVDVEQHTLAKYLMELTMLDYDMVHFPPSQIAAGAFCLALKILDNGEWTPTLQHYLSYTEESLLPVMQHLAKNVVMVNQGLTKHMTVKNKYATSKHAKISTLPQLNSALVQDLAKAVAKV
Chain of Wee1-like protein kinase (P30291 whole entry): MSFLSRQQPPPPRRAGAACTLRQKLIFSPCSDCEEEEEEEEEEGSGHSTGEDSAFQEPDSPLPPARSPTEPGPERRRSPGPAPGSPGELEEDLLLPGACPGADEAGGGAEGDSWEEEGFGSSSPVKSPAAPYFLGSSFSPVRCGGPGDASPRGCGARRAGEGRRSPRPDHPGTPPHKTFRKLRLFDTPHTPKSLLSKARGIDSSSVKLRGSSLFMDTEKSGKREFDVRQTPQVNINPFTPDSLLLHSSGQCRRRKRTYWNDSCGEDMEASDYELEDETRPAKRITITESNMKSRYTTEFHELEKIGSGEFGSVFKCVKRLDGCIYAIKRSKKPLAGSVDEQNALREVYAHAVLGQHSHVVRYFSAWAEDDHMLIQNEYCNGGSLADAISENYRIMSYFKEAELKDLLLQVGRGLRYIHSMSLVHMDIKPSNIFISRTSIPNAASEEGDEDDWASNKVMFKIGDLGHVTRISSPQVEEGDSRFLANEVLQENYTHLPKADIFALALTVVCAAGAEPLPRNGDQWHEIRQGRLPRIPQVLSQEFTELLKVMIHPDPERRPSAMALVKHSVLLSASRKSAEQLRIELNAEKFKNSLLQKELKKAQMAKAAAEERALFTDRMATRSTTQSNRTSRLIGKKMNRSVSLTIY
Chain of C-C chemokine receptor type 6 (P51684 whole entry): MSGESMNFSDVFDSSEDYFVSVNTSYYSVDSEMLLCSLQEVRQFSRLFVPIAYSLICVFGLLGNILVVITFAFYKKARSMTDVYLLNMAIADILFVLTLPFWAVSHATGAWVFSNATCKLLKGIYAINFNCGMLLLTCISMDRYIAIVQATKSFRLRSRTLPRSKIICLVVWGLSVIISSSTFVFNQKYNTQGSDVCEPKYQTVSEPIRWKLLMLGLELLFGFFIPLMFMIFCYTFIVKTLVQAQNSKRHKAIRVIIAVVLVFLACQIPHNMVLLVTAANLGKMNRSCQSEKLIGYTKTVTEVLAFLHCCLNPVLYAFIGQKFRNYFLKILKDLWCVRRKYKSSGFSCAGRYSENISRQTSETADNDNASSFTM
Chain of Beta-galactosidase (Q8VNN2 whole entry): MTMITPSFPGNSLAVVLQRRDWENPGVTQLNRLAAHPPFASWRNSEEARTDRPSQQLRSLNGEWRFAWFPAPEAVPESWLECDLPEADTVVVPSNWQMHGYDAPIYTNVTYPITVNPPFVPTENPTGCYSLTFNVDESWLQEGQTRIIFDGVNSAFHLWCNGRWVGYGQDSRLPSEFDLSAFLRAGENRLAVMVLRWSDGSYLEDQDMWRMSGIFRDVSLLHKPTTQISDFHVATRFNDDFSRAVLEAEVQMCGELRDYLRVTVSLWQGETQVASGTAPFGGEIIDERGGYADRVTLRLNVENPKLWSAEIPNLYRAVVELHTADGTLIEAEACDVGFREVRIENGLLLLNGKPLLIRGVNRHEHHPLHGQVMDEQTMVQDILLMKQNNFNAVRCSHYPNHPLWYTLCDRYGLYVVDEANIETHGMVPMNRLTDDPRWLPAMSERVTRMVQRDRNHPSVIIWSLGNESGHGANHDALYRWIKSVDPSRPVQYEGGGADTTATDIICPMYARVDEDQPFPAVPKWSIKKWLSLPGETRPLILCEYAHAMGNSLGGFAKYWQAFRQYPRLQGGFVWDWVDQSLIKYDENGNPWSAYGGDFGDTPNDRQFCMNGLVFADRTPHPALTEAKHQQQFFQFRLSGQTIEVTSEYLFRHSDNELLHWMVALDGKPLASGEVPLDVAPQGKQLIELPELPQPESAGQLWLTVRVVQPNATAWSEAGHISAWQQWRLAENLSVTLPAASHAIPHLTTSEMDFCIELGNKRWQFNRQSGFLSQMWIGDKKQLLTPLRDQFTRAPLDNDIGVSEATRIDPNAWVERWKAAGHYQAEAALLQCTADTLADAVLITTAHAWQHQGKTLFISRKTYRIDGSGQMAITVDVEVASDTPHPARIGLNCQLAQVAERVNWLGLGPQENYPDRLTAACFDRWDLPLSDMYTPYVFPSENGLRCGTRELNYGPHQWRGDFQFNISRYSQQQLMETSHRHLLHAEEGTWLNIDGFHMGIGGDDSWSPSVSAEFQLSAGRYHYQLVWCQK
Chain of Glutathione-S-transferase (Q26513 whole entry): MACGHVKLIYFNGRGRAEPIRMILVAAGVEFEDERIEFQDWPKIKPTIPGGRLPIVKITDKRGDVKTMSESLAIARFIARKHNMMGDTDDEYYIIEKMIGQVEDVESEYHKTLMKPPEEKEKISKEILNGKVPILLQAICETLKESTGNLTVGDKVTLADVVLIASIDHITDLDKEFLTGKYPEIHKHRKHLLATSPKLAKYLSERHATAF
Chain of Glucose-6-phosphate 1-dehydrogenase (P11413 whole entry): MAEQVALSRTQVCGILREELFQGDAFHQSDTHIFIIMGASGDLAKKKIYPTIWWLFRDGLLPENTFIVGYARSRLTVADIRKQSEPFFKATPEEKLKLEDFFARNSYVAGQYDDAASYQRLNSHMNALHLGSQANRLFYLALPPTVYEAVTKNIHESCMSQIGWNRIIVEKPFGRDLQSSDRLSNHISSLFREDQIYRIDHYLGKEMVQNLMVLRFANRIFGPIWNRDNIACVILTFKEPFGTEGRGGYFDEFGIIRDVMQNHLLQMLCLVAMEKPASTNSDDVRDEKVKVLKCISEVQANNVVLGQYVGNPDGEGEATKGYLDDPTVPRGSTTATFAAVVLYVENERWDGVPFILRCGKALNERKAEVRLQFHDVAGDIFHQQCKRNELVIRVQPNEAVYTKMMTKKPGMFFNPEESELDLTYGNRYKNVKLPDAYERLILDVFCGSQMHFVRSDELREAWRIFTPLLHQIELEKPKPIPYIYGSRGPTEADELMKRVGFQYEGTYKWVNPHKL

O=C(CCCc1ccccc1)c1ccc2c(c1)OCCO2
EC50 [1]: < 200 nM (active)
EC50 [2]: < 160 nM (active)
IC50 [3]: > 39.8 µM (not active)
EC50 [4]: > 50 µM (not active)

CCOC(=O)N1CCN(c2ccc(Cl)c(Cl)c2)CC1
EC50 [5]: > 350 µM (not active)
EC50 [6]: > 350 µM (not active)
AC50 [7]: 25.5 µM (active)

CN(C)c1ccc(/C=c2\c3cc([N+](=O)[O-])ccc3n3c2cc(-c2ccccc2)[n+]3C)cc1
IC50 [8]: 28.3 µM (inactive)
IC50 [9]: 31.9 µM (inactive)
IC50 [10]: > 66.6 µM (inactive)
IC50 [11]: 4.31 µM (active)
CC50 [12]: 34.8 µM (active)
IC50 [13]: 11.8 µM (active)
AC50 [14]: 3.3 µM (active)
AC50 [15]: 14.6 µM (active)
AC50 [16]: 5.6 µM (active)
IC50 [17]: 6.13 µM (active)
CC50 [18]: 1.48 µM (active)
IC50 [19]: 5.79 µM (active)

C=CC[C@@H](CC(=O)N(CCO)Cc1ccccc1)C(=O)NC[C@H](OC(=O)[C@@H](CC=C)CC(=O)OC(C)(C)C)c1ccccc1
AC50 [20]: 57.2 µM (active)

CCc1ccccc1NC(=O)CCCOc1cc(=O)n(C)c2ccccc12
EC50 [21]: > 49.7 µM (inactive)
EC50 [22]: > 49.7 µM (inactive)

Cc1ccc(-c2[nH]c3ccccc3c2SCCN)cc1
EC50 [23]: 4.73 µM (active)

Nc1ccc(OCc2ccccc2)cc1[N+](=O)[O-]
AC50 [7]: 12.5 µM (active)
IC50 [11]: 58.3 µM (active)

Cc1ccc(C2CN(C)C3(C(=O)Nc4ccccc43)C23COc2ccccc2C3=O)cc1 (configuration not stated)
CC50 [24]: > 40 µM (active)
Absolute IC50 (XBP1) [25]: 10 µM
